Data from patent publication US12240844B2 (Voronoi, Inc., priority 2019, dated 2025).
pIC50: −log10 of the molar value.

Legend:
MDA-MB-231 cell line = test: MDA-MB-231 cancer cell proliferation inhibition (Cell Titer-Glo); assay type: cell-based; details: Homo sapiens, MDA-MB-231 triple-negative breast cancer cell line, 72 hours
In short: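 GI50 comes from CellTiter-Glo luminescence, read 10 min after reagent addition at RT, following 72 h compound treatment. Eleven concentrations were used (⅓ steps, highest 10 μM final) on 2000 cells/well. MDA-MB-231 and MDA-MB-468 were grown in DMEM, SHP-77 in RPMI.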

LRRK2 (G2019S) = LRRK2 (G2019S) (Homo sapiens, UniProt Q5S007, G2019S); test: LRRK2 G2019S enzyme inhibition, ADP-Glo kinase assay; assay type: biochemical; parameters: purchased SignalChem L10-12GG
In short: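 Purified human LRRK2 G2019S (16 ng) with 25 μM ATP and 0.2 μg substrate, 2 h at 25° C in 40 mM Tris-HCl pH 7.4, 20 mM MgCl2, 0.5 mg/ml BSA, 50 μM DTT; compound at 12 final concentrations from 50 μM downward. ADP-Glo luminescence versus solvent control gave IC50 (nM).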

human GST-CLK1 (129-end) = target: T1, human GST-CLK1 (129-end) (Homo sapiens, UniProt P49759); test: GST-CLK1 enzyme inhibition, ADP-Glo kinase assay; assay type: biochemical; details: ATP 10 uM
T1 construct: purified human GST-CLK1 (129-end, Signalchem) enzyme; GST; purchased Signalchem
In short: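 GST-CLK1 (129-end, 3 ng) reacted with 10 uM ATP and substrate in 40 mM Tris-HCl pH 7.4, 20 mM MgCl2, 0.5 mg/mL BSA, 50 uM DTT, 1 h at 25° C. ADP-Glo luminescence normalised to solvent control; IC50 from triplicate data.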

T1 sequence (P49759 129-484 limits assumed): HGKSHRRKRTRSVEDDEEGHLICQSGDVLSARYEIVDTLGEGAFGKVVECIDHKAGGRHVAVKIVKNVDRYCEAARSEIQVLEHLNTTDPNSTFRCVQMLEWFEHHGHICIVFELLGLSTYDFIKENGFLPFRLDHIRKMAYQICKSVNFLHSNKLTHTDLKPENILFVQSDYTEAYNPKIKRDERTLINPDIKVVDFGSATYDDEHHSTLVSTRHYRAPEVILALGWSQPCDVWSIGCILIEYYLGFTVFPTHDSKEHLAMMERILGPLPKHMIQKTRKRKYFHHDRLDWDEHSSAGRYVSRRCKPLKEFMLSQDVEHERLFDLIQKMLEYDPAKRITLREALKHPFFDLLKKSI
LRRK2 (G2019S), sequence (Q5S007 970-2527 G2019S limits assumed): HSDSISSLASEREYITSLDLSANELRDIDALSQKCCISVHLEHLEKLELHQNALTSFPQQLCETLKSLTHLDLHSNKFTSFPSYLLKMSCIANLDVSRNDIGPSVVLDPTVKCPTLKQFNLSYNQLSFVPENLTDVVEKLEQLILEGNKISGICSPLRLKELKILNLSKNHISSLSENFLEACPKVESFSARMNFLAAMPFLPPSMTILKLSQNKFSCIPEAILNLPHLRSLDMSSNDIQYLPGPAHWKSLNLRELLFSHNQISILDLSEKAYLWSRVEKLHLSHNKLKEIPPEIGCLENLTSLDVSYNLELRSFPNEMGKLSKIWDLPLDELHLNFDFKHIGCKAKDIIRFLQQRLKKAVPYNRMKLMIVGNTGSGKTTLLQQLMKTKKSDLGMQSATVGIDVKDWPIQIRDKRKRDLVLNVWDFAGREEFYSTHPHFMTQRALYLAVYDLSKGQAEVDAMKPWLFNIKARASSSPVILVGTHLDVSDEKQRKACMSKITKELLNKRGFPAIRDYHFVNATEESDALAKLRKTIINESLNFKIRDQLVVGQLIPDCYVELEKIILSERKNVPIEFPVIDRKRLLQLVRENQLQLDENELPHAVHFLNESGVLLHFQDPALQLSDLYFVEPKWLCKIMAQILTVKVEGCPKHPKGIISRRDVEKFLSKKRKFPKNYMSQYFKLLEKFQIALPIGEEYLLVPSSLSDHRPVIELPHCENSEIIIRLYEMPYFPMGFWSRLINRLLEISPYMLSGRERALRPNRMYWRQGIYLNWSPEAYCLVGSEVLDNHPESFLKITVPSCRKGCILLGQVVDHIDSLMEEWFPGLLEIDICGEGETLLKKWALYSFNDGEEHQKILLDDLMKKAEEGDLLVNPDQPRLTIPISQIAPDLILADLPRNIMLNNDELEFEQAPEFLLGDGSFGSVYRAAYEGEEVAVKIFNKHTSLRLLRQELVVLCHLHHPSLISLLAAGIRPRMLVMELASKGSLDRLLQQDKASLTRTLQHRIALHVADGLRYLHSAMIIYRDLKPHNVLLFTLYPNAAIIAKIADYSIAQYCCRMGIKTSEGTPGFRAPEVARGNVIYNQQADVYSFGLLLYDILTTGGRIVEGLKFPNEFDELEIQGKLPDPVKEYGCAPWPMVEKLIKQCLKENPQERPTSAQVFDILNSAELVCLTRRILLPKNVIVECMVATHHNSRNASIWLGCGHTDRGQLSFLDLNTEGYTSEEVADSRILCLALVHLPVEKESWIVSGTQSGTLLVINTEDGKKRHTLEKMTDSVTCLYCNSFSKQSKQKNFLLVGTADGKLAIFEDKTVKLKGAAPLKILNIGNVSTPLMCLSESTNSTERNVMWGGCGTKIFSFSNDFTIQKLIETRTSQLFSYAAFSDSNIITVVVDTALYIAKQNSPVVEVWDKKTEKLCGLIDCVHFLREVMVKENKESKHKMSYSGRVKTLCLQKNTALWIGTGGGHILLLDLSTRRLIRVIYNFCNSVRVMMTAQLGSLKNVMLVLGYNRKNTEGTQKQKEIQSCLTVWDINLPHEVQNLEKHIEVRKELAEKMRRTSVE

GI50 (MDA-MB-231 cell line)	pIC50 (LRRK2 (G2019S))	pIC50 (human GST-CLK1 (129-end))	Structure (SMILES)
301 to 1000 nM	> 7.00	> 7.00	CCNc1cc(Nc2ccc(C(=O)N3CCC(N4CCOCC4)CC3)c3c2OCO3)nc2[nH]cc(C(F)(F)F)c12 [Example 37, (7-((4-(ethylamino)-3-(trifluoromethyl)-1H-pyrrolo[2,3-b]pyridin-6-yl)amino)benzo[d][1,3]dioxol-4-yl)(4-morpholinopiperidin-1-yl)methanone]
301 to 1000 nM	6.52 to 7.00	6.52 to 7.00	CCNc1cc(Nc2ccc(P3(=O)CCN(C(C)=O)CC3)cc2OC)nc2[nH]cc(C(F)(F)F)c12 [Example 42, 1-(4-(4-((4-(ethylamino)-3-(trifluoromethyl)-1H-pyrrolo[2,3-b]pyridin-6-yl)amino)-3-methoxyphenyl)-4-oxido-1,4-azaphosphinan-1-yl)ethan-1-one]
301 to 1000 nM		> 7.00	CCNc1cc(Nc2ccc(C(=O)N3C[C@@H]4C[C@H]3CO4)c3c2OCCO3)nc2[nH]cc(C(F)(F)F)c12 [Example 44, ((1S,4S)-2-oxa-5-azabicyclo[2.2.1]heptan-5-yl)(8-((4-(ethylamino)-3-(trifluoromethyl)-1H-pyrrolo[2,3-b]pyridin-6-yl)amino)-2,3-dihydrobenzo[b] [1,4]dioxin-5-yl)methanone]
301 to 1000 nM	> 7.00	> 7.00	COCCNc1cc(Nc2ccc(C(=O)N3CCC(N4CCOCC4)CC3)c3c2OCC3)nc2[nH]cc(C(F)(F)F)c12 [Example 55, (7-((4-((2-methoxyethyl)amino)-3-(trifluoromethyl)-1H-pyrrolo[2,3-b]pyridin-6-yl)amino)-2,3-dihydrobenzofuran-4-yl)(4-morpholinopiperidin-1-yl)methanone]
301 to 1000 nM	> 7.00	> 7.00	CCNc1cc(Nc2ccc(C(=O)N3CCC(N4CCOCC4)CC3)c3c2OCC3)nc2[nH]cc(C(F)(F)F)c12 [Example 90, (7-((4-(ethylamino)-3-(trifluoromethyl)-1H-pyrrolo[2,3-b]pyridin-6-yl)amino)-2,3-dihydrobenzofuran-4-yl)(4-morpholinopiperidin-1-yl)methanone]
301 to 1000 nM	> 7.00	> 7.00	O=C(c1ccc(Nc2cc(NC3CC3)c3c(C(F)(F)F)c[nH]c3n2)c2c1CCO2)N1CCC(N2CCOCC2)CC1 [Example 92, (7-((4-(cyclopropylamino)-3-(trifluoromethyl)-1H-pyrrolo[2,3-b]pyridin-6-yl)amino)-2,3-dihydrobenzofuran-4-yl)(4-morpholinopiperidin-1-yl)methanone]
301 to 1000 nM	6.52 to 7.00	6.52 to 7.00	CCNc1cc(Nc2ccc(P3(=O)CCN(C4CCOCC4)CC3)cc2OC)nc2[nH]cc(C(F)(F)F)c12 [Example 94, 4-(4-((4-(ethylamino)-3-(trifluoromethyl)-1H-pyrrolo[2,3-b]pyridin-6-yl)amino)-3-methoxyphenyl)-1-(tetrahydro-2H-pyran-4-yl)-1,4-azaphosphinane 4-oxide]
301 to 1000 nM	> 7.00	> 7.00	COCCNc1cc(Nc2ccc(S(=O)(=O)N3CCC(N4CCOCC4)CC3)c3c2OCCO3)nc2[nH]cc(C(F)(F)F)c12 [Example 97, N^4-(2-methoxyethyl)-N^6-(8-((4-morpholonopiperidin-1-yl)sulfonyl)-2,3-dihydrobenzo[b] [1,4]dioxin-5-yl)-3-(trifluoromethyl)-1H-pyrrolo[2,3-b]pyridine-4,6-diamine]
301 to 1000 nM		6.00 to 6.52	CNc1cc(Nc2ccc(P3(=O)CCN(C4CC4)CC3)cc2OC)nc2[nH]cc(C#N)c12 [Example 146, 6-((4-(1-cyclopropyl-4-oxido-1,4-azaphosphinan-4-yl)-2-methoxyphenyl)amino)-4-(methylamino)-1H-pyrrolo[2,3-b]pyridine-3-carbonitrile]
301 to 1000 nM		6.00 to 6.52	COCCNc1cc(Nc2ccc(P3(=O)CCN(C4CC4)CC3)cc2OC)nc2[nH]cc(C#N)c12 [Example 148, 6-((4-(1-cyclopropyl-4-oxido-1,4-azaphosphinan-4-yl)-2-methoxyphenyl)amino)-4-((2-methoxyethyl)amino)-1H-pyrrolo[2,3-b]pyridine-3-carbonitrile]
301 to 1000 nM		> 7.00	CCNc1cc(Nc2ccc(C(=O)N3CCN(C4COC4)CC3)c3c2OCCO3)nc2[nH]cc(C(F)(F)F)c12 [Example 173, (8-((4-(ethylamino)-3-(trifluoromethyl)-1H-pyrrolo[2,3-b]pyridin-6-yl)amino)-2,3-dihydrobenzo[b] [1,4]dioxin-5-yl)(4-(oxetan-3-yl)piperazin-1-yl)methanone]
301 to 1000 nM	> 7.00	> 7.00	COc1cc(S(=O)(=O)N2CCC(N3CCOCC3)CC2)ccc1Nc1cc(NCCS(C)(=O)=O)c2c(C(F)(F)F)c[nH]c2n1 [Example 194, N^6-(2-methoxy-4-((4-morpholinopiperidin-1-yl)sulfonyl)phenyl)-N^4-(2-(methylsulfonyl)ethyl)-3-(trifluoromethyl)-1H-pyrrolo[2,3-b]pyridine-4,6-diamine]
301 to 1000 nM	> 7.00	> 7.00	CNc1cc(Nc2ccc(C(=O)N3CC[C@@H](N4CCOCC4)C3)c3c2OCC3)nc2[nH]cc(C(F)(F)F)c12 [Example 214, (R)-(7-((4-(methylamino)-3-(trifluoromethyl)-1H-pyrrolo[2,3-b]pyridin-6-yl)amino)-2,3-dihydrobenzofuran-4-yl)(3-morpholinopyrrolidin-1-yl)methanone]
301 to 1000 nM	6.00 to 6.52	6.00 to 6.52	O=C(c1ccc(Nc2cc(C3CC3)c3c(C(F)(F)F)c[nH]c3n2)c2c1OCCO2)N1CCOCC1 [Example 220, (8-((4-cyclopropyl-3-(trifluoromethyl)-1H-pyrrolo[2,3-b]pyridin-6-yl)amino)-2,3-dihydrobenzo[b] [1,4]dioxin-5-yl)(morpholino) methanone]
301 to 1000 nM	6.52 to 7.00	6.00 to 6.52	COc1cc(S(=O)(=O)N2CCOCC2)ccc1Nc1cc(C2CC2)c2c(C#N)c[nH]c2n1 [Example 227, 4-cyclopropyl-6-((2-methoxy-4-(morpholinosulfonyl)phenyl)amino)-1H-pyrrolo[2,3-b]pyridine-3-carbonitrile]
301 to 1000 nM	> 7.00	> 7.00	CNc1cc(Nc2ccc(S(=O)(=O)N3CCC(N4CCOCC4)CC3)c3c2OCCO3)nc2[nH]cc(C(F)(F)F)c12 [Example 233, N^4-methyl-N^6-(8-((4-morpholinopiperidin-1-yl)sulfonyl)-2,3-dihydrobenzo [b] [1,4]dioxin-5-yl)-3-(trifluoromethyl)-1H-pyrrolo[2,3-b]pyridine-4,6-diamine]
301 to 1000 nM	> 7.00	> 7.00	CNc1cc(Nc2ccc(C(=O)N3CCC(N4CCOCC4)CC3)c3c2OCC3)nc2[nH]cc(C(F)(F)F)c12 [Example 234, (7-((4-(methylamino)-3-(trifluoromethyl)-1H-pyrrolo[2,3-b]pyridin-6-yl)amino)-2,3-dihydrobenzofuran-4-yl)(4-morpholinopiperidin-1-yl)methanone]
301 to 1000 nM	> 7.00	> 7.00	CNc1cc(Nc2ccc(C(=O)N3CCC(N4C[C@@H]5C[C@H]4CO5)CC3)c3c2OCC3)nc2[nH]cc(C(F)(F)F)c12 [Example 241, (4-((1S,4S)-2-oxa-5-azabicyclo[2.2.1]heptan-5-yl)piperidin-1-yl)(7-((4-(methylamino)-3-(trifluoromethyl)-1H-pyrrolo[2,3-b]pyridin-6-yl)amino)-2,3-dihydrobenzofuran-4-yl)methanone]
101 to 300 nM	> 7.00	> 7.00	CNc1cc(Nc2ccc(S(=O)(=O)N3CCC(N4C[C@H]5C[C@@H]4CO5)CC3)cc2OC)nc2[nH]cc(C(F)(F)F)c12 [Example 243, N^6-(4-((4-((1R,4R)-2-oxa-5-azabicyclo[2.2.1]heptan-5-yl)piperidin-1-yl)sulfonyl)-2-methoxyphenyl)-N^4-methyl-3-(trifluoromethyl)-1H-pyrrolo[2,3-b]pyridine-4,6-diamine]
301 to 1000 nM	> 7.00	> 7.00	CCNc1cc(Nc2ccc(C(=O)N3CCC(N4C[C@H]5C[C@@H]4CO5)CC3)c3c2OCC3)nc2[nH]cc(C(F)(F)F)c12 [Example 244, (4-((1R,4R)-2-oxa-5-azabicyclo[2.2.1]heptan-5-yl)piperidin-1-yl)(7-((4-(ethylamino)-3-(trifluoromethyl)-1H-pyrrolo[2,3-b]pyridin-6-yl)amino)-2,3-dihydrobenzofuran-4-yl)methanone]
301 to 1000 nM	> 7.00	> 7.00	CCNc1cc(Nc2ccc(C(=O)N3CCN(C4COC4)CC3)c3c2OCC3)nc2[nH]cc(C(F)(F)F)c12 [Example 248, (7-((4-(ethylamino)-3-(trifluoromethyl)-1H-pyrrolo[2,3-b]pyridin-6-yl)amino)-2,3-dihydrobenzofuran-4-yl)(4-(oxetan-3-yl)piperazin-1-yl)methanone]
